Measured values taken from patent US6649797B2, “Compounds and methods of use to treat infectious diseases” (The Picower Institute for Medical Research, priority 1996, dated 2003).

How the values were obtained:
[1] = system: BSA with conjugated NLS peptides that mimic the NLS of SV40 large T antigen; experiment: Nuclear import of BSA with conjugated NLS peptides of SV40 large T antigen
[2] = system: HIV-1 pre-integration complexes / karyopherin α; experiment: Binding of HIV-1 pre-integration complexes to GST-karyopherin α; assay type: biochemical; conditions: for reduction of karyopherin α/HIV-1 binding: lysates of HIV-1RF infected H9 cells treated 2 hours, Phosphorimager
Procedure: Cytoplasmic lysates of H9 cells infected with HIV-1RF (upper panel) or HIV-like pseudovirions (bottom panel) were treated for 2 hours with various concentrations of CNI-H0294, and were then mixed with GST-karyopherin α immobilized on glutathione Sepharose beads. HIV-1 DNA or RNA that co-precipitated with karyopherin α was quantified as in A and B.
Cytoplasmic lysates prepared from H9 cells infected with HIV-1RF were treated with 10 μM CNI-H3094 (lane 1) or with 1 μM CNI-H0294 and 10 μM (lane 5), 5 μM (lane 4), 1 μM (lane 3), or no CNI-H3094 (lane 2). The amount of pre-integration complexes available for interaction with karyopherin α was quantified as in FIG. 10.
H9 cells were infected with equal amounts of wild-type HIV-1NLHX or with mutant HIV-1NLHX that lack Vpr (Vpr^−) or carry a mutation that inactivates the MA NLS (MA NLS^−). Infected cells were washed and incubated for 4 h. An aliquot of each sample was used to quantify the total HIV-1 DNA (FIG. 14A) and the rest was used to prepare cytoplasmic extracts. Extracts were incubated with 1 μM CNI-H0294 (FIG. 14B, lanes 2, 4, 6, 8) or were left untreated (lanes 1, 3, 5, 7). The amount of pre-integration complexes available for binding to karyopherin α was determined as in FIG. 10.
H9 cells were infected with HIV-1 or HIV-like pseudovirions (Haffar, et al., 1990, J. Virol., 64:2653-2659) at a multiplicity adjusted according to p24 content (50 ng p24 per 10^6 cells) The MA NLS^− virus contains substitutions of isoleucine residues for lysines in positions 26 and 27 of MA in an NLHX backbone (Westervelt., et al., 1992, J. Virol. 66:2577-2582), thus inactivating the NLS. The Vpr^− virus has the initiating ATG of the vpr gene changed to GTG, thus abolishing expression of this gene. The ΔMA NLS pseudovirions have leucine substituting for lysine in position 28 of MA. This mutation abrogates nuclear translocation of HIV-1 gag RNA in growth-arrested H9 cells infected with pseudovirions. After a 1 hour absorption, excess viruses or pseudovirions were washed away, and cells were incubated for an additional 2-3 hour period at 37° C. prior to analysis.
Cytoplasmic extracts were prepared by lysing cells in cold extraction buffer (10 mM KCl, 10 mM Tris-HCl [pH 7.6], 0.5 mM MgCl2, 1 μg/ml each of leupeptin and aprotinin, and 1 MM phenylmethylsulfonyl fluoride [PMSF]) by 20-30 strokes of a Dounce homogenizer under the control of phase-contrast microscopy. After removal of nuclei, cytoplasmic extract was cleared by centrifugation at 15,000 g for 10 min.
Cytoplasmic extracts prepared from HIV-1-or pseudovirion-infected H9 cells were adjusted to 0.14 M NaCl, 0.1% Tween 20 and precleared with glutathione-Sepharose beads for 30 min. at room temperature. Karyopherin α was expressed as a fusion protein with glutathione S-transferase (GST) which can bind glutathione beads in solution. GST-karyopherin α immobilized on Sepharose beads was then added (about 50 μg of immobilized karyopherin α per extract from 108 infected cells) and the mixture was incubated at room temperature for another 30 min. Beads were then pelleted by centrifugation and washed 3 times with PBS supplemented with 0.1% Tween 20, 1 μg/ml each of leupeptin and aprotinin, and 1 mM PMSF. HIV-1 DNA was isolated from the beads by SDS-proteinase K treatment with subsequent phenol-chloroform extraction, while pseudovirion gag RNA was isolated by RNazol (Biotecx Laboratories Inc.).

[3] = Toxicity in mice, median lethal dose by intraperitoneal injection; assay type: in vivo, mouse
Procedure: The doses of compounds of the invention found to be lethal to 50% of the mice (LD50) were determined by intraperitoneal injection of groups of five animals with increasing doses of each compound. CNI-0294 was administered from 0, 2, 10, 20, 40, 80, 160, 320, 640, 1280 mg/kg in 0.5 ml of water/HCl; CNI-1594 at 0, 2.4, 5, 10, 20, 40, 80 mg/kg in 0.5 ml of water/HCl; CNI-1794 at 0, 20, 50, 80 mg/kg in 0.5 ml of water/HCl; and CNI-1894 at 0, 10, 20, 40, 80, 240, 480, 960 mg/kg in water/HCl. […] The percentage of animals in each group which died were utilized to calculate the LD50 by non-linear curve fitting with the Enzfit software (Elsevier Bioscience; Cambridge, UK) programmed with the Chou equation (Chou 1976, J Theor Biol 39:253-276)).

[4] = system: macrophage-tropic strain of HIV-1; experiment: Inhibition of HIV-1 replication in peripheral blood-derived macrophages (IC50, RT or p24 in medium); assay type: cell-based; conditions: Human immunodeficiency virus 1, Macrophage, 120 h; 50% inhibition of viral growth; RT or p24 in medium about day 5 or 6 post-infection
Procedure: A quantitative measurement of the activity of the compounds of the invention to block the replication of HIV-1 in non-dividing cells can be determined by culture of a macrophage-tropic strain of HIV-1 on peripheral blood-derived macrophages. The cells are cultured for 5-6 days prior to infection in a medium consisting of DMEM supplemented with 10% type A/B human serum and 200 U/ml Macrophage Colony Stimulating Factor, with half the medium changed after 3 days, to reach a density of about 10^6 cells per 5 ml well. A macrophage-tropic viral stock may be grown on these cells. The concentration of infectious particles in the stock is estimated by measurement of p24 antigen concentration.
To test the effect of compounds of the invention on HIV-1 infection in the above-described culture system, the medium is removed and replaced with medium containing HIV-1 at a concentration of 1 ng of p24 (10^4 TCID50/ml (TCID=tissue culture infectious doses)) and a known concentration of the compound of the invention (the inhibitor). After 24 hours, the cultures are washed to remove non-adherent virus and the culture is re-fed with medium containing the inhibitor at the desired concentration. The amount of replication of HIV-1 is estimated by an assay of the reverse transcriptase activity or by an assay of the concentration of p24 antigen in the culture medium every 2-3 days throughout the post-infection period. In a preferred embodiment the anti-HIV potency of the candidate drug is measured by comparison of the concentration of reverse transcriptase (RT) or of p24 antigen in the medium of the treated and control cultures at the time of the peak of these values in non-treated control cultures, that is about day 5 or 6 post-infection. Repetition at various levels of inhibitor allows for the calculation of the concentration of inhibitor that achieves 50% inhibition of viral growth, IC50. Table I discloses the IC50 of various inhibitors.

What does the source list for `CC(=O)c1cc(Nc2cc(C)[n+](C)c(N)n2)cc(C(C)=O)c1` [CNI-0294, 2-Amino-4-(3,5-diacetylphenyl)amino-1,6-dimethylpyrimidinium chloride]?
block of nuclear import of BSA with conjugated NLS peptides [1]: did not block; reduction of karyopherin α/HIV-1 binding ([2]; 0.1 μM): 8 fold; effect on binding of karyopherin α to complexes ([2]; 1 μM, MA NLS^− complexes): had no effect; diminished binding of karyopherin α to complexes ([2]; 1 μM, Vpr^− complexes): 95%; reduction of karyopherin α/HIV-1 binding ([2]; 1 μM): 25 fold; diminished binding of karyopherin α to complexes ([2]; 1 μM, wild-type (wt) HIV-1NLHX complexes): 95%; interaction of pre-integration complexes with karyopherin α ([2]; 10 μM (FIG. 13A)): blocked the interaction; visible signs of toxicity [3]: no overt signs of toxicity detectable at doses approaching the LD50; LD50 ± standard deviation ([3]; listed as CNI-H0294): 590 mg/kg; LD50 ([3]; mouse, in vivo, ip, read-out: LD50 ± standard deviation): 588 mg/kg

For `CC(=O)c1cc(Nc2cc(C)[n+](C)c(N)n2)cc(C(C)=O)c1.[I-]` [Compound No. 2, 2-amino-4-(3,5-diacetylphenyl)amino-1,6-dimethylpyrimidinium iodide], which IC50 [4] is on record?
Its IC50 is 1 nM.
